Test results published in article PMC6540952 (Chemical Science, 2019).

Molecular target: IP6K1 (Homo sapiens, UniProt Q92551)
Test: NMR kinase activity assay with [[…]6]InsP6, […] ATP
Format: biochemical

Chain of IP6K1 (Q92551 whole entry): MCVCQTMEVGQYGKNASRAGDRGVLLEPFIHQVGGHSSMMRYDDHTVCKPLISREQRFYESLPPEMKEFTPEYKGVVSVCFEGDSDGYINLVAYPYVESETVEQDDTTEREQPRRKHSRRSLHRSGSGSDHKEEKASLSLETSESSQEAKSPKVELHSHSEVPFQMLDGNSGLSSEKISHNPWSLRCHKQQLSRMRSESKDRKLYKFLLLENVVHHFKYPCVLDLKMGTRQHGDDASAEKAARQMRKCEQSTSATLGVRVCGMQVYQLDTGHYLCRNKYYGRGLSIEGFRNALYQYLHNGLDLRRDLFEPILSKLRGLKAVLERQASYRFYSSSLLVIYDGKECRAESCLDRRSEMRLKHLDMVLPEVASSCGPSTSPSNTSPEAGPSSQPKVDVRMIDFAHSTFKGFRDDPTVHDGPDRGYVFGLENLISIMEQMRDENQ

## O=[N+]([O-])c1ccc(CNc2nc(NCc3cccc(C(F)(F)F)c3)nc3[nH]cnc23)cc1 [TNP]
  IC50: 2250 nM
